Source: PubChem BioAssay (NCI)
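Each compound was tested at five concentrations against cells in 96-well plates for 48 hours. Abbreviation: GI50, concentration required for 50% inhibition of growth. TGI: concentration producing complete growth inhibition.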

Key:
Assay in all cases: inhibition of tumour cell growth, NCI panel, 48 h
ACHN renal = system: ACHN renal
HOP-92 NSCLC = system: HOP-92 NSCLC
NCI/ADR-RES ovarian = system: NCI/ADR-RES ovarian
CCRF-CEM leukemia = system: CCRF-CEM leukemia
HS 578T breast = system: HS 578T breast
CAKI-1 renal = system: CAKI-1 renal
786-0 renal = system: 786-0 renal
U251 CNS = system: U251 CNS
SK-MEL-2 melanoma = system: SK-MEL-2 melanoma
HOP-62 NSCLC = system: HOP-62 NSCLC

| SMILES | TGI (ACHN renal) [µM] | TGI (HOP-92 NSCLC) [µM] | TGI (NCI/ADR-RES ovarian) [µM] | TGI (CCRF-CEM leukemia) [µM] | TGI (HS 578T breast) [µM] | TGI (CAKI-1 renal) [µM] | TGI (786-0 renal) [µM] | TGI (U251 CNS) [µM] | TGI (SK-MEL-2 melanoma) [µM] | GI50 (ACHN renal) [µM] | GI50 (HOP-92 NSCLC) [µM] | GI50 (NCI/ADR-RES ovarian) [µM] | GI50 (CCRF-CEM leukemia) [µM] | GI50 (HOP-62 NSCLC) [µM] | TGI (HOP-62 NSCLC) [µM] | GI50 (CAKI-1 renal) [µM] | GI50 (786-0 renal) [µM] | GI50 (U251 CNS) [µM] | GI50 (SK-MEL-2 melanoma) [µM] | GI50 (HS 578T breast) [µM] |
| --- | --- | --- | --- | --- | --- | --- | --- | --- | --- | --- | --- | --- | --- | --- | --- | --- | --- | --- | --- | --- |
| O=c1[nH]cc(/C=N\Nc2ccccc2)c(=O)[nH]1 | > 100 | > 100 | > 100 | > 100 | > 100 | > 100 | > 100 | > 100 | > 100 | – | – | – | – | – | – | – | – | – | – | – |
| O=Cc1ccc(-c2ccc(-c3nc4ccccc4[nH]3)cc2)s1 | 67.1 | 28.1 | 50.9 | 38.9 | – | 57.2 | 62.2 | > 100 | > 100 | 24.4 | 0.152 | 21.1 | 14 | 16.1 | 41.1 | 29.9 | 19 | 26.7 | 42 | – |
| O=C(O)C1=C(C(=O)Nc2ccccc2)C2C=CC1C2 (configuration not stated) | > 100 | > 100 | – | > 100 | – | – | > 100 | > 100 | – | – | – | – | – | – | > 100 | – | – | – | – | – |
| CN(C)c1ncnc2c1Cc1ccccc1C(=O)N2C | > 100 | > 100 | – | > 100 | – | > 100 | > 100 | > 100 | > 100 | – | – | – | – | – | > 100 | – | – | – | – | – |
| O=C(Cc1nc2ccccc2s1)Nc1ccc(Cl)cc1 | > 100 | – | – | > 100 | – | > 100 | > 100 | > 100 | > 100 | – | – | – | – | – | > 100 | – | – | – | – | – |
| COC(=O)C(Cc1cnc[nH]1)NC(=O)CNC(=O)CCCn1c(=O)c2c3ccccc3n(C)c2n2nnc(-c3ccccc3)c12 (configuration not stated) | > 100 | – | > 100 | > 100 | > 100 | > 100 | > 100 | > 100 | > 100 | > 100 | – | > 100 | > 100 | > 100 | > 100 | > 100 | > 100 | > 100 | > 100 | > 100 |
| COc1cccc(NC(=O)C(C)(C)C)c1C=O | > 100 | > 100 | – | > 100 | – | > 100 | > 100 | > 100 | > 100 | – | – | – | – | – | > 100 | – | – | – | – | – |
| Fc1ccc(-c2nn3c(CNc4ccccc4)nnc3s2)cc1 | > 100 | > 100 | 53.6 | > 100 | > 100 | 49.2 | > 100 | > 100 | – | 66.8 | 17.5 | 13.6 | 36.2 | 33.8 | > 100 | 19.4 | 56.2 | 23.5 | – | 49.7 |
| O=Nc1ccc(O)c2ccccc12 | 3.14 | 9.01 | 6.61 | – | 4.18 | 4.03 | 12.6 | 3.17 | 3.72 | 1.69 | 3.31 | 1.11 | – | – | – | 1.63 | 4.1 | 1.65 | 1.7 | 0.868 |
| COc1cc(Br)c(CC2(C#N)c3ccccc3C3C(N2C(=O)c2ccccc2)C3(Cl)Cl)cc1OC (configuration not stated) | > 65.5 | > 65.5 | – | > 65.5 | – | – | > 65.5 | > 65.5 | > 65.5 | – | – | – | – | – | – | – | – | – | – | – |
| CCSC(SCC)c1cc2c(cc1Br)OCO2 | > 100 | 55.3 | – | 62.4 | – | – | > 100 | 32.9 | 51.9 | – | – | – | – | – | > 100 | – | – | – | – | – |
| NCCCCCCCCn1c2c(c3ccccc3c1=O)C(=O)c1ccccc1-2 | 14 | 8.47 | 85.1 | – | 22.2 | 9.03 | 56.4 | 35.9 | 6.98 | 4.07 | 2.4 | 4.29 | – | 2.13 | 4.69 | 3.25 | 21 | 13.4 | 2.83 | 3.83 |
| COC(=O)[C@H]1C(=O)[C@@]2(C)[C@H]([C@H](OC(=O)c3ccccc3)[C@]3(O)C[C@H](OC(=O)[C@H](O)[C@@H](NC(=O)c4ccc(F)cc4)c4ccccc4)C(C)=C1C3(C)C)[C@]1(OC(C)=O)CO[C@@H]1C[C@@H]2O | > 25 | > 14.5 | > 25 | > 8.69 | 0.0231 | > 16.3 | – | > 25 | – | 1.6 | – | 4.61 | 0.00685 | 0.0112 | > 6.58 | 0.12 | 0.0805 | 0.0103 | – | 0.00363 |
| c1ccc(N=c2snc3scc(-c4ccccc4)n23)cc1 | > 100 | 76.3 | – | > 100 | – | > 100 | > 100 | 68.3 | > 100 | – | – | – | – | – | > 100 | – | – | – | – | – |
| CC1=C(C(=O)Nc2ccccc2)C(c2ccc([N+](=O)[O-])cc2)C(C(=O)Nc2ccccc2)=C(C)N1 | > 100 | 60.9 | – | 39.8 | – | – | 59 | 38.6 | 31.4 | – | – | – | – | – | > 100 | – | – | – | – | – |
| O=C(NCCO)c1cc2c(cn1)[nH]c1ccccc12 | > 100 | > 100 | – | > 100 | – | > 100 | 33.7 | > 100 | 33.6 | – | – | – | – | – | 40.1 | – | – | – | – | – |
| CCC(=O)C1(c2ccccc2)CCN(C)CC1 | > 100 | > 100 | > 100 | > 100 | > 100 | > 100 | > 100 | > 100 | – | – | – | – | – | – | > 100 | – | – | – | – | – |
| COc1c2c3ccccc3nc-2n(C)c2ccccc12 | 19.4 | – | 34.8 | – | > 100 | > 100 | 40.5 | 32.7 | > 100 | 3.33 | – | 7.33 | – | 8.61 | 33.6 | 19.2 | 6.54 | 7.81 | 36.8 | 42 |
| Cc1ccc(-n2c3nc(=O)n(C)c(=O)c-3nc3ccccc32)cc1 | 49.2 | – | – | 49.4 | – | 70.7 | > 100 | 39.8 | 37.2 | – | – | – | – | – | > 100 | – | – | – | – | – |
| O=C1OC(c2ccccc2)=N/C1=C\c1ccc2ccccc2c1 | > 100 | > 100 | – | > 100 | – | > 100 | > 100 | > 100 | > 100 | – | – | – | – | – | – | – | – | – | – | – |
